From article PMC2829272 (Biochemical pharmacology, 2008)

Biological target: T1, CYP26A1 (Homo sapiens, UniProt O43174)
T1 sequence (O43174 1-497): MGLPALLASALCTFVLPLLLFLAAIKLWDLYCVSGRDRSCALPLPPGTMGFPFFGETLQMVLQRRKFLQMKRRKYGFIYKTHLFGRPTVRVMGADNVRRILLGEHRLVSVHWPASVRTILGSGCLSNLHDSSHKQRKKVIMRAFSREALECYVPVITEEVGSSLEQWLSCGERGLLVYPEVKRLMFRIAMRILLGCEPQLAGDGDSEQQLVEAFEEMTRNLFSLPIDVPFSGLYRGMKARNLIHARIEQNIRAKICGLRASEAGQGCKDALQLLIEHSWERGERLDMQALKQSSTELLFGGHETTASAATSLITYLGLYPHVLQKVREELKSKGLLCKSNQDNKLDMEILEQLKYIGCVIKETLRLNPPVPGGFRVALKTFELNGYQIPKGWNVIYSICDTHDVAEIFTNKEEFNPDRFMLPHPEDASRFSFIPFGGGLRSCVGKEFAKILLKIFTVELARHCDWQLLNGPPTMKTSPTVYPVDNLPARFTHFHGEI
Assay: spectral titration
Type: binding

In the case of `CC1=C(/C=C/C(C)=C/C=C/C(C)=C/C(=O)O)C(C)(C)CCC1` [RA, all-trans-retinoic acid], the Kd is reported as 529 nM.
